This note sets out measurements from patent US20260317344A1, “EGFR INHIBITORS FOR TREATING DISEASE” (BLOSSOMHILL THERAPEUTICS, INC., priority 2023, published 2026).

Read-outs that look alike come from different tables or passages of the source.

Holding throughout (format): cell-based
Assay [1] relates to HCC827 cells. Briefly: 5-Day CellTiter Glo (CTG) cell proliferation assay, HCC827. Conditions: Homo sapiens; HCC827 cells (d746-750 EGFR), 5-day CTG proliferation, 120 hours; read-out: HCC827 IC50. An outline of the steps: (§1)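 Luminescent ATP signal (CellTiter-Glo 2.0) after 120 hours of compound exposure gave IC50 values. PC-9 and HCC827 harbour EGFR d746-750; NCI-H1975 harbours L858R/T790M.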
(In general: ATP-based viability assays read luminescence as a measure of living cells.)

The subject of assay [2] is PC-9 cells. Briefly: 5-Day CellTiter Glo (CTG) cell proliferation assay, PC-9. Conditions: Homo sapiens; PC-9 cells (d746-750 EGFR), 5-day CTG proliferation, 120 hours; read-out: PC-9 IC50. An outline of the steps: as §1
Assay [3] has as its target T1, pEGFR, PC-9 cells (d746-750 EGFR) (Homo sapiens, UniProt P00533, DEL746-750).
T1 construct: pEGFR (Tyr1068) TR-FRET
Briefly: Cellular EGFR phosphorylation assay (LANCE Ultra TR-FRET) in PC-9 cells. An outline of the steps:
(§2)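 IC50 values come from TR-FRET detection of EGFR phosphorylated at Tyr1068 in whole-cell lysates. Compound exposure lasts 4 h at 37 °C across nine 3-fold concentrations, and the wildtype-amplified A431 line receives 40 ng/mL EGF during the last 10 minutes.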
Background: Time-resolved FRET reads energy transfer from a long-lived donor to a nearby acceptor.

In assay [4] the test system is BaF3 cells with engineered EGFR L858R/C797S. Briefly: 3-Day CellTiter Glo (CTG) cell proliferation assay, BaF3 EGFR L858R/C797S. The settings on record: Mus musculus, 3-day CTG proliferation, 72 hours. As to the method:
(§3) 3-DAY CellTiter Glo (CTG) Cell Proliferation Assays (BaF3 Cell Lines)
(§4) Cell proliferation assays were carried out in BaF3 cells engineered with EGFR mutations. BaF3 cells with engineered EGFR L858R/T790M/C797S, EGFR L858R/C797S, or EGFR d746-750/T790M transgene, one thousand cells/50 μL per well were seeded in white 384-well plate, followed by treatment with indicated compounds in a 9-dose dilution series using TECAN d300e liquid dispenser. Cells were incubated with compounds for 72 hours at 37° C. and 5% CO2. Cell proliferation was measured using CellTiter-Gbo 2.0 luciferase-based ATP detection assay (Promega, Madison, WI) at 18 μL per well following the manufacturer's protocol. Plates were then read on a TECAN Sparks multimode microplate reader. Data was analyzed using GraphPad Prism 9 (GraphiPad Software, San Diego, CA) to obtain IC50 values.

In assay [5] the test system is BaF3 cells with engineered EGFR d746-750/T790M. The assay is described as follows: 3-Day CellTiter Glo (CTG) cell proliferation assay, BaF3 EGFR d746-750/T790M. The settings on record: Mus musculus; BaF3 EGFR d746-750/T790M cells, 3-day CTG proliferation, 72 hours. The method, then: as §3, §4
Assay [6] has as its target T2, pEGFR, A431 cells (wildtype EGFR) (Homo sapiens, UniProt P00533).
T2 construct: pEGFR (Tyr1068) TR-FRET
Briefly: Cellular EGFR phosphorylation assay (LANCE Ultra TR-FRET) in A431 cells. An outline of the steps: as §2

In assay [7] the test system is BaF3 cells with engineered EGFR L858R/T790M/C797S. Briefly: 3-Day CellTiter Glo (CTG) cell proliferation assay, BaF3 EGFR L858R/T790M/C797S. The settings on record: Mus musculus, 3-day CTG proliferation, 72 hours. An outline of the steps:
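Luminescent ATP read-out (CellTiter-Glo 2.0) after 72 h compound exposure gives IC50 values. BaF3 transgenic cells, one thousand per well, received a nine-dose series and were kept at 37 °C under 5% CO2.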

Assay [8] deals with NCI-H1975 cells. The assay is described as follows: 5-Day CellTiter Glo (CTG) cell proliferation assay, NCI-H1975. Conditions: Homo sapiens; NCI-H1975 cells (L858R/T790M EGFR), 5-day CTG proliferation, 120 hours; read-out: H1975 IC50. An outline of the steps: as §1
The target of assay [9] is T3, pEGFR, NCI-H1975 cells (L858R/T790M EGFR) (Homo sapiens, UniProt P00533, L858R/T790M).
T3 construct: pEGFR (Tyr1068) TR-FRET
T3 sequence (P00533 25-1210 T790M/L858R): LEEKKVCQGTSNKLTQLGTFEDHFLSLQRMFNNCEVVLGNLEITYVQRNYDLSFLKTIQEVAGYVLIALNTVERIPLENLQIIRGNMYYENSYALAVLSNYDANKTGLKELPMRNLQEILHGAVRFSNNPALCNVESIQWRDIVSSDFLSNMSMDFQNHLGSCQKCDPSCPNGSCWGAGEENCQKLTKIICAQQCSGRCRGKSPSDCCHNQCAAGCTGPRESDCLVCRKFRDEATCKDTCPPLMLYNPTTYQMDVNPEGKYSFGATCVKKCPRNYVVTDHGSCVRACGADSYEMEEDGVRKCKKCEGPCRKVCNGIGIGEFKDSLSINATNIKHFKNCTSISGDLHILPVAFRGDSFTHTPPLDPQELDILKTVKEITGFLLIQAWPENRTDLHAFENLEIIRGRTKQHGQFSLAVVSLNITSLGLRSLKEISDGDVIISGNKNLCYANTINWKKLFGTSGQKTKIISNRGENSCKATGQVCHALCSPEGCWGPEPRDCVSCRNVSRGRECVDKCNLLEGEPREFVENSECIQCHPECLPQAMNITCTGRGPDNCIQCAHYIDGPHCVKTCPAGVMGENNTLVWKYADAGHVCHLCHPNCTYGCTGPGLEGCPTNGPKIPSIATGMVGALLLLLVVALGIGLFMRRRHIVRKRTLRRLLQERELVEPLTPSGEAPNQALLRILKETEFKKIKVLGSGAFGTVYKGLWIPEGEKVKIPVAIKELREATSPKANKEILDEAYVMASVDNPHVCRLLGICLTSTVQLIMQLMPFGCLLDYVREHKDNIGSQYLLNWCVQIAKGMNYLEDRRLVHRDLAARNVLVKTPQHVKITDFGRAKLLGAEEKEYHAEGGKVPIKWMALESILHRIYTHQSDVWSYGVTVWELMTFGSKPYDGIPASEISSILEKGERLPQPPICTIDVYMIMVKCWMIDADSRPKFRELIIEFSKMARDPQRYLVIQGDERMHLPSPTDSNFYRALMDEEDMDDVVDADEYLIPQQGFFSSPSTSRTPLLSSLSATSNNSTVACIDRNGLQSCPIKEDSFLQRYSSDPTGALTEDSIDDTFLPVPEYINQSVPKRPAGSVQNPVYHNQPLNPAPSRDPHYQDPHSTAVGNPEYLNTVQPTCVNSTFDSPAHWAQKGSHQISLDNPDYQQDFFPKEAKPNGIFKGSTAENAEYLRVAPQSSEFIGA
Briefly: Cellular EGFR phosphorylation assay (LANCE Ultra TR-FRET) in NCI-H1975 cells. An outline of the steps:
as §2

Setting [10] is: 4 hours at 37° C., read-out: PC-9 pEGFR IC50.
Setting [11] is: 4 hours at 37° C., 40 ng/mL EGF for the final 10 minutes, read-out: A431 pEGFR IC50.
Where [12] appears, read: 4 hours at 37° C., read-out: H1975 pEGFR IC50.

T1 sequence (P00533 with tags, fused parts or gaps DEL746-750): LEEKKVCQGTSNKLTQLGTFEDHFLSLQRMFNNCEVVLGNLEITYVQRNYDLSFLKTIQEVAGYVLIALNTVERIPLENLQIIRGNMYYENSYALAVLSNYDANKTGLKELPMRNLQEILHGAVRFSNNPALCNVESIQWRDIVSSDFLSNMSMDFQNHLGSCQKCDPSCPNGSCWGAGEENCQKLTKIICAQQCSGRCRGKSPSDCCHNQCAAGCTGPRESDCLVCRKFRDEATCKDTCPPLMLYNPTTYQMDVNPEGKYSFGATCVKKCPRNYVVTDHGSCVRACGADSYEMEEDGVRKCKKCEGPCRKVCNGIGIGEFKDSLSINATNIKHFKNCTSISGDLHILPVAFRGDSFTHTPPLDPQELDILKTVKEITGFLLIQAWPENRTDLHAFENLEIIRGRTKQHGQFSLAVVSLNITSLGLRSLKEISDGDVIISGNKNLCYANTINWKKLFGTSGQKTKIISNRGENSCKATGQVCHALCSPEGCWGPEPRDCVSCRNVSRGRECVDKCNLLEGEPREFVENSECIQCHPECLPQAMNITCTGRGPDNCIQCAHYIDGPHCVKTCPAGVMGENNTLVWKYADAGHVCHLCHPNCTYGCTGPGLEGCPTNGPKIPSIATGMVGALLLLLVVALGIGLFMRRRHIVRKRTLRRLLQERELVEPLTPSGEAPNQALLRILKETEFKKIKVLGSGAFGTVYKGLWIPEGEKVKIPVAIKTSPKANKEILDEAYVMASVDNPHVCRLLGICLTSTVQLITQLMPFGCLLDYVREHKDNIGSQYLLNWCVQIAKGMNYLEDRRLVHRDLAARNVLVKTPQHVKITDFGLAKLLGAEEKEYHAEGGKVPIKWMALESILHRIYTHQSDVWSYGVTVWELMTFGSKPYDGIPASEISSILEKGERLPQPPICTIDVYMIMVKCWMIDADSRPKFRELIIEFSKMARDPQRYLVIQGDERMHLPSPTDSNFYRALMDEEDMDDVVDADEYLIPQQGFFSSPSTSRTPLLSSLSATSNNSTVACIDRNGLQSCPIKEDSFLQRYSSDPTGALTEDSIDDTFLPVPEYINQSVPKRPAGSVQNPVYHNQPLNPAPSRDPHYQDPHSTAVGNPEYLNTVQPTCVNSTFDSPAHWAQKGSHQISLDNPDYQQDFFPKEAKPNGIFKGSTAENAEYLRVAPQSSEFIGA
T2 sequence (P00533 25-1210): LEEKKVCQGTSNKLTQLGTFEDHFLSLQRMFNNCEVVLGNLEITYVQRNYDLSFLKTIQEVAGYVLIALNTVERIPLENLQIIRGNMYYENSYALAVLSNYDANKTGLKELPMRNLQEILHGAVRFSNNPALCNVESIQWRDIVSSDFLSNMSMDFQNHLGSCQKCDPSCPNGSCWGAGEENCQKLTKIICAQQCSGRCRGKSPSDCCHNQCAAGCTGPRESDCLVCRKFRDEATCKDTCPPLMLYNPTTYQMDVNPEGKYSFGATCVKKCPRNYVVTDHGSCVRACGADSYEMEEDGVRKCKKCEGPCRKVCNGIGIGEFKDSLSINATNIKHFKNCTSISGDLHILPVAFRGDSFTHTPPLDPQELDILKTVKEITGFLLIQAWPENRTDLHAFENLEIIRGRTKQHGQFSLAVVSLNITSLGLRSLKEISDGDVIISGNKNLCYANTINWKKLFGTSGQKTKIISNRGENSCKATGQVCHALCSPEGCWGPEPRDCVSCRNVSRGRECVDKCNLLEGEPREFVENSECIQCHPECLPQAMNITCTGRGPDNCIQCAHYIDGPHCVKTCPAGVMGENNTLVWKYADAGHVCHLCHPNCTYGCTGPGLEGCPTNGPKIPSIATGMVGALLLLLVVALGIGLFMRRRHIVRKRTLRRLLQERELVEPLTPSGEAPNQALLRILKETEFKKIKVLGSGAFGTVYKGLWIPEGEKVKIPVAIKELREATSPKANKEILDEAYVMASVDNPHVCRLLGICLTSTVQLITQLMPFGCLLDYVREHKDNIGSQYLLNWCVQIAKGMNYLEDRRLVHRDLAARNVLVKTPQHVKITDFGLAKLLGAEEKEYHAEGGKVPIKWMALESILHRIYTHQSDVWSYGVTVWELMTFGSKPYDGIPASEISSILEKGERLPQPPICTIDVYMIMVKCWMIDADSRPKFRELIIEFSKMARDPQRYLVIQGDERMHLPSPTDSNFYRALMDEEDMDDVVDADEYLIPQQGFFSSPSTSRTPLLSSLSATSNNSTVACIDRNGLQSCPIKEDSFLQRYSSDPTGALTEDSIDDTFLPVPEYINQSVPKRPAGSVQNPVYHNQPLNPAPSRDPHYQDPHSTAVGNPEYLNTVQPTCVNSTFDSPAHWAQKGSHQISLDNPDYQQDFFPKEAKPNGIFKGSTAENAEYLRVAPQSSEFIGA

With `CCOc1nn([C@@H](C)CO)c2c1/C=C/c1n[nH]c3cnc(cc13)-c1c(C)nn(C)c1O[C@@H](C)CNC2` [Ex. 92, (2S)-2-[(10S,17E)-16-ethoxy-6,8,10-trimethyl-2,8,10,11,12,13-hexahydro-14H-5,3-(azenometheno)tripyrazolo[3,4-f:3′,4′-j:4″,3″-n][1,4]oxazacyclopentadecin-14-yl]propan-1-ol], the IC50 came out at 5.37 nM in [1]; 43.4 nM in [2]; 12.6 nM in assay [3] (setting [10]); 0.74 nM in assay [4]; 29.7 nM in assay [5]; 33.4 nM in assay [6] (setting [11]). Moreover, the IC50 in assay [7] was 4.12 nM; in [8], 68.5 nM; in assay [9] (setting [12]), 14.1 nM.
For `CCNc1nn([C@@H](C)CO)c2c1/C=C/c1n[nH]c3cnc(cc13)-c1c(C)nn(C)c1O[C@@H](C)CN(C)C2` [Ex. 93, (2S)-2-[(10S,17E)-16-(ethylamino)-6,8,10,12-tetramethyl-2,8,10,11,12,13-hexahydro-14H-5,3-(azenometheno)tripyrazolo[3,4-f:3′,4′-j:4″,3″-n][1,4]oxazacyclopentadecin-14-yl]propan-1-ol], the IC50 in [1] is 0.51 nM; in assay [2], 1.98 nM; in assay [3] (setting [10]), 2.05 nM; in assay [4], 0.13 nM; in assay [5] it was 1.8 nM; in assay [6] (setting [11]), 19.6 nM. In addition, the values for the IC50 in [7], in assay [8] and in [9] (setting [12]) were 1.65 nM, 2 nM and 3.54 nM, respectively.
Turning to `CCNc1nn([C@@H](C)CO)c2c1/C=C/c1n[nH]c3c(C)nc(cc13)-c1c(C)nn(C)c1O[C@@H](C)CN(C)C2` [Ex. 94, (2S)-2-[(10S,17E)-16-(ethylamino)-6,8,10,12,20-pentamethyl-2,8,10,11,12,13-hexahydro-14H-5,3-(azenometheno)tripyrazolo[3,4-f:3′,4′-j:4″,3″-n][1,4]oxazacyclopentadecin-14-yl]propan-1-ol], the IC50 in assay [1] worked out at 0.71 nM; in assay [2], 3.52 nM; in assay [3] (read-out: PC-9 pEGFR IC50, 4 hours at 37° C.), 2.31 nM; in [4], 0.09 nM; in assay [5], 1.23 nM; in assay [6] (read-out: A431 pEGFR IC50, 4 hours at 37° C., 40 ng/mL EGF for the final 10 minutes) it was 17.8 nM. Moreover, the IC50 in [7] stood at 0.93 nM; in assay [8], 1.76 nM; in assay [9] (read-out: H1975 pEGFR IC50, 4 hours at 37° C.), 1.55 nM.
On to `CCOc1nn([C@H](C)CO)c2c1/C=C/c1n[nH]c3c(C)nc(cc13)-c1c(C)nn(C)c1O[C@@H](C)CN(C)C2` [Ex. 95, (2R)-2-[(10S,17E)-16-ethoxy-6,8,10,12,20-pentamethyl-2,8,10,11,12,13-hexahydro-14H-5,3-(azenometheno)tripyrazolo[3,4-f:3′,4′-j:4″,3″-n][1,4]oxazacyclopentadecin-14-yl]propan-1-ol], for which the IC50 in assay [1] was 1.15 nM; in assay [2], 5.19 nM; in assay [3] (setting [10]) it was 3.35 nM; in assay [4] it was 0.13 nM; in [5] it was 2.14 nM; in [6] (setting [11]), 17.7 nM. Also, the results for the IC50 in assay [7], in assay [8] and in [9] (setting [12]) were 0.74 nM, 2.86 nM and 1.76 nM, respectively.
Regarding `CCOc1nn([C@@H](C)CO)c2c1/C=C/c1n[nH]c3cnc(cc13)-c1c(C)nn(C)c1OC[C@@H](C)N(C)C2` [Ex. 97, (2S)-2-[(11R,17E)-16-ethoxy-6,8,11,12-tetramethyl-2,8,10,11,12,13-hexahydro-14H-5,3-(azenometheno)tripyrazolo[3,4-f:3′,4′-j:4″,3″-n][1,4]oxazacyclopentadecin-14-yl]propan-1-ol], the IC50 in assay [1] came to 0.2 nM; in assay [2] it was 1.39 nM; in assay [3] (setting [10]), 1.08 nM; in assay [4], 0.04 nM; in assay [5], 0.4 nM; in [6] (setting [11]), 11 nM. Besides, the IC50 in [7] came out at 0.43 nM; in assay [8], 1.77 nM; in assay [9] (setting [12]), 1.62 nM.
`CCOc1nn([C@@H](C)CO)c2c1/C=C/c1n[nH]c3c(C)nc(cc13)-c1c(C)nn(C)c1O[C@H](C)CN(C)C2` [Ex. 98]: the IC50 in [1] came out at 1.35 nM; in assay [2], 5.71 nM; in assay [3] (setting [10]) it was 3.62 nM; in [4], 0.24 nM; in assay [5] it was 1.01 nM; in assay [6] (setting [11]), 16.8 nM. For the same molecule, the IC50 is 0.74 nM in assay [7], 3.34 nM in assay [8] and 1.9 nM in [9] (setting [12]).
`CNc1nn([C@@H](C)CO)c2c1/C=C/c1n[nH]c3c(C)nc(cc13)-c1c(C)nn(C)c1O[C@@H](C)CN(C)C2` [Ex. 101, (2S)-2-[(10S,17E)-6,8,10,12,20-pentamethyl-16-(methylamino)-2,8,10,11,12,13-hexahydro-14H-5,3-(azenometheno)tripyrazolo[3,4-f:3′,4′-j:4″,3″-n][1,4]oxazacyclopentadecin-14-yl]propan-1-ol]: the IC50 came to 1.05 nM in [1]; 8.86 nM in [2]; 4.17 nM in assay [3] (setting [10]); 0.2 nM in assay [4]; 4.36 nM in assay [5]; 34.7 nM in assay [6] (setting [11]). In addition, the IC50 in [7] came to 1.37 nM; in [8] it was 3.6 nM; in assay [9] (setting [12]), 2.68 nM.
Turning to `Cc1nn(C)c2c1/C=C/c1n[nH]c3c(C)nc(cc13)-c1c(C)nn(C)c1O[C@@H](C)CN(C)C2` [Ex. 103, (10S,17E)-6,8,10,12,14,16,20-heptamethyl-2,10,11,12,13,14-hexahydro-8H-5,3-(azenometheno)tripyrazolo[3,4-f:3′,4′-j:4″,3″-n][1,4]oxazacyclopentadecine], the IC50 in [1] was 2.13 nM; in assay [2], 9.94 nM; in assay [3] (setting [10]) it was 9.78 nM; in assay [4], 0.56 nM; in [5] it was 13.6 nM; in [6] (setting [11]), 13.4 nM. The results for the IC50 in assay [7], in [8] and in assay [9] (setting [12]) were 1.87 nM, 11.2 nM and 3.44 nM, respectively.
In the case of `Cc1nn(C)c2c1/C=C/c1n[nH]c3c(C)nc(cc13)-c1c(C)nn(C)c1O[C@@H](C)CN(C(C)C)C2` [Ex. 106, (10S,17E)-6,8,10,14,16,20-hexamethyl-12-(propan-2-yl)-2,10,11,12,13,14-hexahydro-8H-5,3-(azenometheno)tripyrazolo[3,4-f:3′,4′-j:4″,3″-n][1,4]oxazacyclopentadecine], the IC50 in assay [1] came out at 2.18 nM; in [2] it was 14.6 nM; in assay [3] (setting [10]) it was 9 nM; in [4], 1.37 nM; in assay [5], 4.75 nM; in assay [6] (setting [11]), 10.2 nM. The figures for the IC50 in [7], in assay [8] and in [9] (setting [12]) were 3.41 nM, 7.92 nM and 3.03 nM, respectively.
Regarding `CCOc1nn(C[C@H](C)O)c2c1/C=C/c1n[nH]c3cnc(cc13)-c1c(C)nn(C)c1O[C@@H](C)CN(C1CC1)C2` [Ex. 107, (2S)-1-[(10S,17E)-12-cyclopropyl-16-ethoxy-6,8,10-trimethyl-2,8,10,11,12,13-hexahydro-14H-5,3-(azenometheno)tripyrazolo[3,4-f:3′,4′-j:4″,3″-n][1,4]oxazacyclopentadecin-14-yl]propan-2-ol], the IC50 in assay [1] amounted to 2.12 nM; in [2] it was 10.6 nM; in assay [3] (setting [10]) it was 4.41 nM; in assay [4], 0.49 nM; in [5], 4 nM; in assay [6] (setting [11]), 5.13 nM. Further, the IC50 in assay [7] came to 3.55 nM; in [8], 55.2 nM; in assay [9] (setting [12]), 7.07 nM.
